From US10597388B2, “Pyridazinone herbicides” (FMC CORPORATION, priority 2014, dated 2020)

Tests used:
Assay in all cases: Test D controlled growth environment herbicide test, pre- and postemergence
Assay type in all cases: in vivo
[1] = tested on: Russian thistle (Salsola kali); conditions: for Russian Thistle plant response rating / Plant response rating (scale of 0 to 100), Russian Thistle: 31 g ai/ha
In short: (§1)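 Pre-emergence: seeds sown in silt loam soil were sprayed with compound in a non-phytotoxic solvent mix containing surfactant. Post-emergence: plants at 2 to 18 cm (1- to 4-leaf stage) in peat moss/vermiculite medium got the same formulation. Visual 0–100 rating versus controls after 14 to 21 d.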

[2] = tested on: bluegrass (annual bluegrass, Poa annua); conditions: for Bluegrass plant response rating / Plant response rating (scale of 0 to 100), Bluegrass: 31 g ai/ha
In short: as §1

[3] = tested on: bromegrass, downy (downy bromegrass, Bromus tectorum); conditions: for Bromegrass, Downy plant response rating / Plant response rating (scale of 0 to 100), Bromegrass, Downy: 31 g ai/ha
In short: as §1

[4] = tested on: buckwheat, wild (wild buckwheat, Polygonum convolvulus); conditions: for Buckwheat, Wild plant response rating / Plant response rating (scale of 0 to 100), Buckwheat, Wild: 31 g ai/ha
In short: as §1

[5] = tested on: canarygrass (Phalaris minor); conditions: for Canarygrass plant response rating / Plant response rating (scale of 0 to 100), Canarygrass: 31 g ai/ha
In short: as §1

[6] = tested on: chamomile (scentless chamomile, Matricaria inodora); conditions: for Chamomile plant response rating: 31 g ai/ha
In short: as §1

[7] = tested on: field poppy (Papaver rhoeas); conditions: for Field Poppy plant response rating / Plant response rating (scale of 0 to 100), Field Poppy: 31 g ai/ha
In short: as §1

[8] = tested on: field violet (Viola arvensis); conditions: for Field Violet plant response rating / Plant response rating (scale of 0 to 100), Field Violet: 31 g ai/ha
In short: as §1

[9] = tested on: mustard, wild (wild mustard, Sinapis arvensis); conditions: for Mustard, Wild plant response rating / Plant response rating (scale of 0 to 100), Mustard, Wild: 31 g ai/ha
In short: as §1

[10] = tested on: oat, wild (wild oat, Avena fatua); conditions: for Oat, Wild plant response rating / Plant response rating (scale of 0 to 100), Oat, Wild: 31 g ai/ha
In short: as §1

[11] = tested on: oilseed rape (Brassica napus); conditions: for Oilseed Rape plant response rating / Plant response rating (scale of 0 to 100), Oilseed Rape: 31 g ai/ha
In short: as §1

[12] = tested on: radish, wild (wild radish, Raphanus raphanistrum); conditions: for Radish, Wild plant response rating / Plant response rating (scale of 0 to 100), Radish, Wild: 31 g ai/ha
In short: as §1

[13] = tested on: wheat, spring (spring wheat, Triticum aestivum); conditions: for Wheat, Spring plant response rating / Plant response rating (scale of 0 to 100), Wheat, Spring: 31 g ai/ha
In short: as §1

[14] = Postemergence, scale 0 to 100 (0 no effect, 100 complete control)
[15] = Postemergence, 125 g ai/ha, visual rating on scale 0 (no effect) to 100 (complete control), 14 to 21 d
[16] = Postemergence, 250 g ai/ha, scale 0 to 100 (0 no effect, 100 complete control)
[17] = Preemergence, 62 g ai/ha, scale 0 to 100 (0 no effect, 100 complete control)
[18] = Preemergence, 125 g ai/ha, scale 0 to 100 (0 no effect, 100 complete control)
[19] = Preemergence, 250 g ai/ha, scale 0 to 100 (0 no effect, 100 complete control)
[20] = postemergence, 62 g ai/ha, scale 0 to 100, 0 no effect, 100 complete control

CCOC(=O)Oc1c(C)nn(C)c(=O)c1-c1c(C)ccc2ccccc12 [Compound 73]
35: Plant response rating, Bluegrass [2, 17] | Plant response rating, Bluegrass [2, 18] | Plant response rating (scale of 0 to 100), Field Violet ([8]; Preemergence)
5: Plant response rating, Oilseed Rape [11, 17]
30: Plant response rating, Bluegrass [2, 19] | Plant response rating, Bluegrass [2, 20] | Plant response rating, Buckwheat, Wild [4, 19] | Plant response rating (scale of 0 to 100), Radish, Wild ([12]; Preemergence)
95: Buckwheat, Wild plant response rating [4, 14] | Plant response rating, Field Violet [8, 19] | Plant response rating, Field Violet [8, 20] | Plant response rating, Oat, Wild [10, 15] | Plant response rating, Oat, Wild [10, 20] | Plant response rating, Oilseed Rape [11, 16] | Plant response rating, Radish, Wild [12, 20]
85: Plant response rating, Russian Thistle [1, 16] | Plant response rating, Bromegrass, Downy [3, 16] | Plant response rating, Canarygrass [5, 17] | Plant response rating, Chamomile [6, 20] | Mustard, Wild plant response rating [9, 14] | Oat, Wild plant response rating [10, 14] | Plant response rating, Oat, Wild [10, 18] | Plant response rating, Wheat, Spring [13, 16] | Plant response rating, Wheat, Spring [13, 19]
40: Plant response rating, Russian Thistle [1, 18] | Plant response rating, Bromegrass, Downy [3, 17]
0: Plant response rating (scale of 0 to 100), Buckwheat, Wild ([4]; Preemergence) | Plant response rating, Buckwheat, Wild [4, 17] | Plant response rating (scale of 0 to 100), Oilseed Rape ([11]; Preemergence) | Plant response rating, Oilseed Rape [11, 18]
55: Plant response rating, Bluegrass [2, 15] | Plant response rating, Bromegrass, Downy [3, 20] | Plant response rating, Wheat, Spring [13, 17] | Plant response rating, Wheat, Spring [13, 20]
90: Plant response rating, Bromegrass, Downy [3, 19] | Plant response rating, Canarygrass [5, 16] | Plant response rating, Canarygrass [5, 18] | Plant response rating, Chamomile [6, 15] | Field Violet plant response rating [8, 14] | Plant response rating, Field Violet [8, 15] | Plant response rating, Field Violet [8, 16] | Plant response rating, Oat, Wild [10, 17] | Plant response rating, Radish, Wild [12, 19]
15: Bluegrass plant response rating [2, 14] | Plant response rating (scale of 0 to 100), Bluegrass ([2]; Preemergence) | Plant response rating (scale of 0 to 100), Wheat, Spring ([13]; Preemergence)
65: Plant response rating, Bluegrass [2, 16] | Plant response rating (scale of 0 to 100), Mustard, Wild ([9]; Preemergence) | Oilseed Rape plant response rating [11, 14]
45: Wheat, Spring plant response rating [13, 14]
10: Plant response rating (scale of 0 to 100), Russian Thistle ([1]; Preemergence)
50: Plant response rating, Bromegrass, Downy [3, 18]
70: Plant response rating, Bromegrass, Downy [3, 15] | Plant response rating, Canarygrass [5, 20] | Chamomile plant response rating [6, 14] | Plant response rating (scale of 0 to 100), Field Poppy ([7]; Preemergence) | Plant response rating, Oilseed Rape [11, 19] | Plant response rating, Oilseed Rape [11, 20] | Plant response rating, Wheat, Spring [13, 15] | Plant response rating, Wheat, Spring [13, 18]
100: Plant response rating, Buckwheat, Wild [4, 15] | Plant response rating, Buckwheat, Wild [4, 16] | Plant response rating, Buckwheat, Wild [4, 20] | Plant response rating, Canarygrass [5, 19] | Plant response rating, Chamomile [6, 16] | Plant response rating, Field Poppy [7, 15] | Plant response rating, Field Poppy [7, 16] | Plant response rating, Field Poppy [7, 17] | Plant response rating, Field Poppy [7, 18] | Plant response rating, Field Poppy [7, 19] | Plant response rating, Field Poppy [7, 20] | Plant response rating, Mustard, Wild [9, 15] | Plant response rating, Mustard, Wild [9, 16] | Plant response rating, Mustard, Wild [9, 18] | Plant response rating, Mustard, Wild [9, 19] | Plant response rating, Mustard, Wild [9, 20] | Plant response rating, Oat, Wild [10, 16] | Plant response rating, Oat, Wild [10, 19] | Plant response rating, Radish, Wild [12, 15] | Plant response rating, Radish, Wild [12, 16] | Plant response rating, Radish, Wild [12, 18]
75: Russian Thistle plant response rating [1, 14] | Plant response rating, Russian Thistle [1, 19] | Field Poppy plant response rating [7, 14] | Plant response rating, Field Violet [8, 17] | Plant response rating (scale of 0 to 100), Oat, Wild ([10]; Preemergence) | Plant response rating, Oilseed Rape [11, 15] | Radish, Wild plant response rating [12, 14] | Plant response rating, Radish, Wild [12, 17]
80: Plant response rating, Russian Thistle [1, 15] | Plant response rating, Russian Thistle [1, 20] | Plant response rating, Canarygrass [5, 15] | Plant response rating (scale of 0 to 100), Canarygrass ([5]; Preemergence) | Plant response rating, Field Violet [8, 18] | Plant response rating, Mustard, Wild [9, 17]
25: Plant response rating, Russian Thistle [1, 17] | Bromegrass, Downy plant response rating [3, 14]
60: Plant response rating, Buckwheat, Wild [4, 18] | Canarygrass plant response rating [5, 14]
20: Plant response rating (scale of 0 to 100), Bromegrass, Downy ([3]; Preemergence)

COC(=O)Oc1c(C)nn(C)c(=O)c1-c1c(C)sc2c(C)cc(C)cc12 [Compound 81]
40: Plant response rating, Bluegrass [2, 16] | Plant response rating, Wheat, Spring [13, 19]
50: Mustard, Wild plant response rating [9, 14] | Plant response rating, Mustard, Wild [9, 19] | Plant response rating, Oilseed Rape [11, 18] | Plant response rating, Radish, Wild [12, 17]
20: Plant response rating, Bluegrass [2, 18] | Plant response rating, Bluegrass [2, 20] | Plant response rating (scale of 0 to 100), Bromegrass, Downy ([3]; Preemergence) | Plant response rating, Wheat, Spring [13, 16]
85: Plant response rating, Russian Thistle [1, 20] | Plant response rating, Canarygrass [5, 20] | Plant response rating, Field Violet [8, 20] | Oat, Wild plant response rating [10, 14] | Plant response rating (scale of 0 to 100), Oat, Wild ([10]; Preemergence) | Plant response rating, Oat, Wild [10, 17] | Plant response rating, Oat, Wild [10, 18] | Plant response rating, Oilseed Rape [11, 16]
70: Oilseed Rape plant response rating [11, 14] | Plant response rating, Oilseed Rape [11, 20]
75: Russian Thistle plant response rating [1, 14] | Plant response rating, Bromegrass, Downy [3, 16] | Plant response rating, Bromegrass, Downy [3, 19] | Canarygrass plant response rating [5, 14] | Plant response rating (scale of 0 to 100), Canarygrass ([5]; Preemergence) | Field Violet plant response rating [8, 14] | Plant response rating (scale of 0 to 100), Field Violet ([8]; Preemergence) | Plant response rating, Oilseed Rape [11, 15] | Radish, Wild plant response rating [12, 14]
15: Plant response rating, Russian Thistle [1, 18] | Bromegrass, Downy plant response rating [3, 14] | Plant response rating, Bromegrass, Downy [3, 18] | Plant response rating (scale of 0 to 100), Buckwheat, Wild ([4]; Preemergence) | Plant response rating, Buckwheat, Wild [4, 17] | Plant response rating, Buckwheat, Wild [4, 19]
5: Bluegrass plant response rating [2, 14]
95: Plant response rating, Canarygrass [5, 15] | Plant response rating, Canarygrass [5, 18] | Plant response rating, Field Violet [8, 19] | Plant response rating, Oat, Wild [10, 15] | Plant response rating, Oat, Wild [10, 19] | Plant response rating, Radish, Wild [12, 15]
10: Plant response rating, Bluegrass [2, 17]
90: Plant response rating, Russian Thistle [1, 15] | Plant response rating, Russian Thistle [1, 16] | Plant response rating, Oat, Wild [10, 20] | Plant response rating, Radish, Wild [12, 20]
100: Buckwheat, Wild plant response rating [4, 14] | Plant response rating, Buckwheat, Wild [4, 15] | Plant response rating, Buckwheat, Wild [4, 16] | Plant response rating, Buckwheat, Wild [4, 20] | Plant response rating, Canarygrass [5, 16] | Plant response rating, Canarygrass [5, 19] | Chamomile plant response rating [6, 14] | Plant response rating, Chamomile [6, 15] | Plant response rating, Chamomile [6, 16] | Plant response rating, Chamomile [6, 20] | Field Poppy plant response rating [7, 14] | Plant response rating, Field Poppy [7, 15] | Plant response rating, Field Poppy [7, 16] | Plant response rating (scale of 0 to 100), Field Poppy ([7]; Preemergence) | Plant response rating, Field Poppy [7, 17] | Plant response rating, Field Poppy [7, 18] | Plant response rating, Field Poppy [7, 19] | Plant response rating, Field Poppy [7, 20] | Plant response rating, Field Violet [8, 15] | Plant response rating, Field Violet [8, 16] | Plant response rating, Field Violet [8, 18] | Plant response rating, Oilseed Rape [11, 19] | Plant response rating, Radish, Wild [12, 16]
65: Plant response rating, Bromegrass, Downy [3, 15] | Plant response rating, Canarygrass [5, 17]
0: Plant response rating (scale of 0 to 100), Russian Thistle ([1]; Preemergence) | Plant response rating, Russian Thistle [1, 17] | Plant response rating (scale of 0 to 100), Bluegrass ([2]; Preemergence) | Plant response rating, Buckwheat, Wild [4, 18] | Plant response rating (scale of 0 to 100), Mustard, Wild ([9]; Preemergence) | Plant response rating, Mustard, Wild [9, 17] | Plant response rating, Mustard, Wild [9, 18] | Plant response rating (scale of 0 to 100), Oilseed Rape ([11]; Preemergence) | Plant response rating, Oilseed Rape [11, 17] | Plant response rating (scale of 0 to 100), Radish, Wild ([12]; Preemergence) | Wheat, Spring plant response rating [13, 14] | Plant response rating, Wheat, Spring [13, 15] | Plant response rating (scale of 0 to 100), Wheat, Spring ([13]; Preemergence) | Plant response rating, Wheat, Spring [13, 17] | Plant response rating, Wheat, Spring [13, 18] | Plant response rating, Wheat, Spring [13, 20]
60: Plant response rating, Bluegrass [2, 19] | Plant response rating, Mustard, Wild [9, 15] | Plant response rating, Mustard, Wild [9, 20]
35: Plant response rating, Russian Thistle [1, 19] | Plant response rating, Bromegrass, Downy [3, 20]
98: Plant response rating, Oat, Wild [10, 16]
45: Plant response rating, Bromegrass, Downy [3, 17]
80: Plant response rating, Field Violet [8, 17] | Plant response rating, Mustard, Wild [9, 16]
30: Plant response rating, Bluegrass [2, 15]
